The nature of series [1]: Relative bioavailability study of voxilaprevir amorphous free acid tablets vs Form VI tablets in healthy subjects (fasted, fed). The series is classed as in vivo, human. The conditions noted are these: for AUC(0-inf) / Cmax: human, in vivo, oral, 100 mg. From the text:
Accordingly, a spray dried dispersion of voxilaprevir in the amorphous free acid form was selected for incorporation into the tablet formulation.

Series [2] can be described thus: Physical (solid-state) stability, XRPD. The series is classed as physicochemical. As to conditions: for tendency to crystallize in the presence of pre-existing crystalline voxilaprevir: spiked SOF/VEL SSD/VOX SSD tablets. As for the experimental part: As described previously, Form VIII of voxilaprevir is characterized by an X-ray powder diffractogram comprising the following peaks (±0.2°): at 7.8, 8.2, and 20.2°2θ, as determined on a diffractometer using Cu-Kα radiation.
Voxilaprevir SSD is hygroscopic, with a reversible weight gain of 11% when cycled between 0% and 90% RH at 25° C.
The impact of voxilaprevir SSD potency on the chemical and physical stability thereof was also evaluated (Table 5). This development study compared the properties of typical voxilaprevir SSD with 50% w/w voxilaprevir/50% w/w copovidone (Lot C) to those of sub-potent voxilaprevir SSD with 40% w/w voxilaprevir/60% w/w copovidone (Lot D) and super-potent voxilaprevir SSD with 60% w/w voxilaprevir/40% w/w copovidone (Lot E). Voxilaprevir SSD was packaged in a designated commercial packaging configuration (i.e., polyethylene bags sealed in aluminum bags with 5% w/w desiccant) and stored for 6 months at both 25° C./60% RH and 40° C./75% RH. […] All samples remained amorphous by XRPD throughout the duration of the study.
The impact of reprocessed voxilaprevir SSD on the chemical and physical stability of voxilaprevir SSD was additionally evaluated. Voxilaprevir was reprocessed (re-dissolved, spray-dried, and secondary dried) twice and packaged in a designated commercial packaging configuration (i.e., polyethylene bags sealed in aluminum bags with 5% w/w desiccant) and stored for 6 months at both 25° C./60% RH and 40° C./75% RH. […] All samples remained amorphous by XRPD throughout the duration of the study.
In some embodiments, the film-coated tablets were packaged in 75 and 100 mL white HDPE bottles (Lots A and B, respectively, as described in Tables 11A, 11B) with 1 g silica gel desiccant canisters and a polyester fiber coil. The 75 and 100 mL HDPE bottles contained fourteen and twenty eight tablets, respectively. […] The packaged tablets (14 and 28 counts) were evaluated for stability at 40° C./75% RH and 25° C./60% RH. Additionally, the 14-count bottles (without cap) were evaluated for stability under open conditions at 40° C./75% RH. […]

Series [3] is described as follows: Photostability (light exposure, ICH Q1B). The series is classed as physicochemical. As to conditions: tablets film-coated to weight gains of 2.1 to 5.4%, ICH Q1B. As for the experimental part: In some embodiments, and the Examples presented herein, the tablet formulation includes sofosbuvir having Form 6 and, optionally, a trace amount of Form 7.
Tablet cores and film-coated tablets were evaluated per ICH Q1B guidelines with a total of illumination of more than 1.2 million-lux hours and a total irradiance of more than 200 W·hr/m^2.

The nature of series [4]: Storage stability: appearance, assay/label strength (LS), total impurities/degradation products. As to conditions: all conditions. Type of series: physicochemical. The protocol:
In some embodiments, the film-coated tablets were packaged in 75 and 100 mL white HDPE bottles (Lots A and B, respectively, as described in Tables 11A, 11B) with 1 g silica gel desiccant canisters and a polyester fiber coil. The 75 and 100 mL HDPE bottles contained fourteen and twenty eight tablets, respectively. Each HDPE bottle was capped using a white, continuous thread, child-resistant polypropylene screw cap with an […], aluminum-faced line. The packaged tablets (14 and 28 counts) were evaluated for stability at 40° C./75% RH and 25° C./60% RH. Additionally, the 14-count bottles (without cap) were evaluated for stability under open conditions at 40° C./75% RH.
For each of the impact studies, the sofosbuvir/velpatasvir SSD/voxilaprevir SSD tablets were packaged in a designated commercial packaging configuration (28-count, 100 mL HPDE bottle, coil, 1 g desiccant), and stored for 12 weeks at 25° C./60% RH and 40° C./75% RH. Tablets were also packaged in open containers (28-count, 100 mL HPDE bottle without cap) and stored for 4 weeks at 40° C./75% RH and for 1 week at 50° C./92% RH.
The sofosbuvir/velpatasvir SSD/voxilaprevir SSD tablets were packaged in the designated commercial packaging configuration (28-count, 100 mL HPDE bottle, coil, 1 g desiccant), and stored for 6 months at 25° C./60% RH and 40° C./75% RH.

Series [5] can be described thus: Tablet dissolution in 50 mM sodium acetate buffer pH 5.0 with 2.0% w/v Polysorbate 80 and 0.001% w/v BHT, 75 rpm, 900 mL, 37° C., USP Type II. Type of series: physicochemical. As to conditions: tablets containing voxilaprevir SSD. As for the experimental part:
FIGS. 10-12 depict additional dissolution profiles for the sofosbuvir/velpatasvir SSD/voxilaprevir SSD tablets having the formulation described in Table 13 and which were used in phase 1, 2, and 3 clinical studies, where the dissolution testing was conducted at pH 5.0 acetate buffer containing 2.0% w/v polysorbate 80. Four batches of the sofosbuvir/velpatasvir SSD/voxilaprevir SSD tablets were tested, with Batch A manufactured at 100 kg and Batches B, C and D manufactured at 145 kg. All other aspects of the formulation and manufacturing process were otherwise equivalent. The four batches were packed in the same commercial configuration: 28 count, 100 mL HPDE bottle with 1 g silica gel desiccant canister and a polyester fiber coil. […] Moreover, for Batch A, the amount dissolved at 30 min remained between 98 and 100% for sofosbuvir, between 90 and 92% for velpatasvir SSD, and between 89 and 93% for voxilaprevir SSD. […] For Batch D, the amount dissolved at 30 min remained at 100% for sofosbuvir, between 90 and 91% for velpatasvir SSD, and between 89 and 91% for voxilaprevir SSD. Release of velpatasvir SSD and voxilaprevir SSD from the sofosbuvir/velpatasvir SSD/voxilaprevir SSD tablets associated with all four Batches was complete after 60 minutes.

The nature of series [6]: Tablet dissolution as a function of medium pH and composition (Apparatus II, 75 rpm, 900 mL, 37° C.). As to conditions: Formulation G tablets. The series is classed as physicochemical.
The next series is described as follows: BCS classification. The series is classed as physicochemical.
Series [7] is described as follows: Tablet dissolution in 50 mM sodium acetate buffer pH 5.0 with 2.0% w/v Polysorbate 80 and 0.001% w/v BHT, 75 rpm, 900 mL, 37° C., USP Type II. Type of series: physicochemical. As to conditions: for dissolution at 30 minutes: after 4 weeks open at 40° C./75% RH.
Series [8] can be described thus: Voxilaprevir Form VI single and multiple oral dose pharmacokinetics in healthy subjects. The conditions noted are these: for Cmax / half-life / Tmax / AUC / AUC(0-inf) / AUC(0-t): human, plasma; for Cmax / AUC / AUC(0-inf) / AUC(0-t): mean. The series is classed as in vivo, human. The protocol: Pub. No. 2015/0175625 A1. Initial studies were conducted using the crystalline Form VI of voxilaprevir. As described previously, Form VI of voxilaprevir is characterized by an X-ray powder diffractogram comprising the following peaks (±0.2°): at 14.6, 15.4, and 20.0°2θ, as determined on a diffractometer using Cu-Kα radiation. Following single and multiple oral doses of voxilaprevir, Form VI, maximum plasma concentrations occurred between 2.0 and 5.0 hours (median tmax). […] Steady-state concentrations of voxilaprevir, Form VI were achieved after 7 days of once-daily dosing across all dose levels (Table 2).

Setting [9] is: 100 mg tablets, healthy subjects.
Setting [10] is: Amorphous Free Acid 100 mg, healthy subjects, fed (with moderate food).
[11] abbreviates: single dose 100 mg, healthy subjects, fasted (N = 15).

The structures appear in SMILES notation. Where two headings read alike, the source gives them in different places.

In the case of `CC[C@@H]1[C@@H]2CN(C(=O)[C@H](C(C)(C)C)NC(=O)O[C@@H]3C[C@H]3CCCCC(F)(F)c3nc4ccc(OC)cc4nc3O2)[C@@H]1C(=O)N[C@]1(C(=O)NS(=O)(=O)C2(C)CC2)C[C@H]1C(F)F` [Amorphous Free Acid], in series [1] (setting [9]), the “higher Cmax compared to tablets (2×50 mg) comprising voxilaprevir, Form VI” value is reported as roughly 43% and the “higher exposure (AUC) compared to tablets (2×50 mg) comprising voxilaprevir, Form VI” value is “approximately 9%”. The same molecule registered an AUC(0-inf) in [1] (Amorphous Free Acid 100 mg, healthy subjects, fasted (N = 15)) of 367 ng·h/mL. In series [1] (setting [10]), the area under the curve AUC(0-inf) amounted to 494 ng·h/mL and the maximum concentration (Cmax) was found to be 44.2 ng/mL. For the same molecule, in series [1] (setting [11]), the AUC(0-inf) was found to be 367 ng·h/mL and the maximum concentration (Cmax) turned out to be 32.7 ng/mL. The “Cmax Geometric Least Square Ratio, Amorphous Free Acid/Form VI GMR” value in series [1] (single dose, fasted) is given as 1.43. The “tendency to crystallize in the presence of pre-existing crystalline voxilaprevir” value in series [2] is given as “no tendency to crystallize”.
`CC[C@@H]1[C@@H]2CN(C(=O)[C@H](C(C)(C)C)NC(=O)O[C@@H]3C[C@H]3CCCCC(F)(F)c3nc4ccc(OC)cc4nc3O2)[C@@H]1C(=O)N[C@]1(C(=O)NS(=O)(=O)C2(C)CC2)C[C@H]1C(F)F` [Voxilaprevir, (1aR,5S,8S,9S,10R,22aR)-5-tert-butyl-N-{(1R,2R)-2-(difluoromethyl)-1-[(1-methylcyclopropanesulfonyl)carbamoyl]cyclopropyl}-9-ethyl-18,18-difluoro-14-methoxy-3,6-dioxo-1,1a,3,4,5,6,9,10,18,19,20,21,22,22a-tetradecahydro-8H-7,10-methanocyclopropa[18,19][1,10,3,6]dioxadiazacyclononadecino[11,12-b]quinoxaline-8-carboxamide]: the “level of degradation products” value in series [3] was 0.0%. The total impurities/degradation products is recorded as 0.0% in series [4] (desiccant/packaging study tablets, 6 months); 0.7% in series [4] (tablet Lots A-D from sub-potent/super-potent VEL SSD and VOX SSD); 0.0% in [4] (tablets from VEL SSD with 6.0% residual ethanol and VOX SSD with 2.1% residual acetone); 0.0% in series [4] (tablets from VEL SSD with 7.0% and VOX SSD with 3.2% water content). In addition, the “released at 30 minutes” value in series [5] was 91%; in series [7] (spiked tablets containing 5% w/w voxilaprevir Form VIII or Form X), 84%; in series [7] (spiked tablets containing 10% w/w voxilaprevir Form VIII or Form X), 80%; in [7] (spiked tablets containing 20% w/w voxilaprevir Form VIII or Form X), 73%; in [7] (tablets containing 0% w/w crystalline voxilaprevir), 91%; in [7] (tablets containing neat amorphous voxilaprevir free acid (physical mixture with copovidone)) it was 76%. Besides, the “dissolution at 60 minutes in pH 4.0 and 5.0 containing 2.0% w/v polysorbate 80” value in series [6] is recorded as “complete dissolution”. Also, the “dissolution in pH 2.0, 4.5 and 6.8 buffers, FaSSIF and FeSSIF” value in [6] is recorded as “Incomplete dissolution”. Moreover, the “aqueous solubility, pH dependence” value in “BCS classification” was “pH-dependent solubility”. In addition, the “dissolution at 30 minutes” value is 85% in [7] (SSD potency tablets Lot A); 91% in [7] (SSD potency tablets Lot B); 92% in [7] (SSD potency tablets Lots C and D).
In the case of `COC[C@H]1C[C@@H](c2ncc(-c3ccc4c(c3)COc3cc5c(ccc6nc([C@@H]7CC[C@H](C)N7C(=O)[C@@H](NC(=O)OC)C(C)C)[nH]c65)cc3-4)[nH]2)N(C(=O)[C@H](NC(=O)OC)c2ccccc2)C1` [amorphous velpatasvir free base], the “tendency to crystallize in the presence of pre-existing crystalline voxilaprevir” value in series [2] is recorded as “no tendency to crystallize”.
As to `CC[C@@H]1[C@@H]2CN(C(=O)[C@H](C(C)(C)C)NC(=O)O[C@@H]3C[C@H]3CCCCC(F)(F)c3nc4ccc(OC)cc4nc3O2)[C@@H]1C(=O)N[C@]1(C(=O)NS(=O)(=O)C2(C)CC2)C[C@H]1C(F)F` [voxilaprevir, Form VI], the Cmax is 7.3 ng/mL in series [8] (oral, 30 mg, multiple dose 30 mg); 3.7 ng/mL in series [8] (oral, 30 mg, single dose 30 mg); 46 ng/mL in series [8] (oral, 100 mg, multiple dose 100 mg); 17.6 ng/mL in series [8] (oral, 100 mg, single dose 100 mg); 155 ng/mL in [8] (oral, 300 mg, multiple dose 300 mg); 34.5 ng/mL in [8] (oral, 300 mg, single dose 300 mg). Moreover, the half-life in series [8] (oral, 30 mg, multiple dose 30 mg, median) was 41 h; in series [8] (oral, 30 mg, single dose 30 mg, median), 9.37 h; in [8] (oral, 100 mg, multiple dose 100 mg, median), 30.5 h; in [8] (oral, 100 mg, single dose 100 mg, median) it was 36.7 h; in series [8] (oral, 300 mg, multiple dose 300 mg, median) it was 27.6 h; in [8] (oral, 300 mg, single dose 300 mg, median), 35.5 h. Also, the Tmax in series [8] (oral, 30 mg, multiple dose 30 mg, median, read-out: tmax) worked out at 5 h; in series [8] (oral, 30 mg, single dose 30 mg, median, read-out: tmax), 4 h; in series [8] (oral, 100 mg, multiple dose 100 mg, median, read-out: tmax) it was 5 h; in [8] (oral, 100 mg, single dose 100 mg, median, read-out: tmax), 3 h; in [8] (oral, 300 mg, multiple dose 300 mg, median, read-out: tmax) it was 5 h; in series [8] (oral, 300 mg, single dose 300 mg, median, read-out: tmax), 2 h. Further, the Tmax in [8] (po, single and multiple oral doses, read-out: time of maximum plasma concentrations (median tmax)) lay in the range of 2 to 5 h. The area under the curve (AUC) in series [8] (oral, multiple dose 30 mg) came to 74.2 ng·h/mL; in series [8] (oral, multiple dose 100 mg), 364 ng·h/mL; in series [8] (oral, multiple dose 300 mg) it was 1030 ng·h/mL. For the same molecule, the AUC(0-inf) in series [8] (oral, single dose 30 mg) is 56.9 ng·h/mL; in [8] (oral, single dose 100 mg), 245 ng·h/mL; in series [8] (oral, single dose 300 mg), 485 ng·h/mL. Further, the AUC(0-t) is 33 ng·h/mL in [8] (oral, single dose 30 mg); 188 ng·h/mL in series [8] (oral, single dose 100 mg); 425 ng·h/mL in [8] (oral, single dose 300 mg). Further, in series [8] (single and multiple dosing, 30 to 300 mg, healthy subjects), the “dose linearity of pharmacokinetics” value is “dose-linear pharmacokinetics”. Besides, the “physical stability of crystal form” value in series [2] (converted to crystalline Form VIII) was “physically metastable”.
